Experimental data: patent US10167262B2, “Herbicidal substituted 3-arylpyrazoles” (FMC CORPORATION, priority 2014, dated 2019)

How the values were obtained:
Assay type in all cases: in vivo
[1] = test system: blackgrass (Alopecurus myosuroides); test: Test C pre-/postemergence greenhouse test, plant response rating 0-100; conditions: Postemergence; for Plant response rating (0 to 100), Blackgrass: 62 g ai/ha; for Plant response rating, Blackgrass: scale 0 to 100
Summary of the method: (§1)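 Scores run from 0, no effect, to 100, complete control, assigned by eye after treated plants and controls spent 13 to 15 days in a greenhouse. Soil-applied treatment went onto freshly sown seed in loam and sand; foliar treatment hit seedlings at the 1- to 4-leaf stage.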

[2] = test system: ragweed (common ragweed, Ambrosia elatior); test: as above; conditions: Postemergence; for Plant response rating, Ragweed: scale 0 to 100
Summary of the method: as §1

[3] = test system: wild oat (Avena fatua); test: Test C postemergence greenhouse test, plant response rating 0-100; conditions: for Plant response rating, Oat, Wild: scale 0 to 100
Text: (§2) At the same time, plants selected from these crop and weed species and also winter barley (Hordeum vulgare), bermudagrass (Cynodon dactylon), downy bromegrass (Bromus tectorum), canarygrass (Phalaris minor), cocklebur (common cocklebur, Xanthium strumarium), woolly cupgrass (Eriochloa villosa), deadnettle (henbit deadnettle, Lamium amplexicaule), green foxtail (Setaria viridis), goosegrass (Eleusine indica), surinam grass (Brachiaria decumbens), windgrass (Apera spica-venti), chickweed (common chickweed, Stellaria media), kochia (Kochia scoparia), and wild oat (Avena fatua), were planted in pots containing Redi-Earth® planting medium (Scotts Company, 14111 Scottslawn Road, Marysville, Ohio 43041) comprising spaghnum peat moss, vermiculite, wetting agent and starter nutrients and treated with postemergence applications of test chemicals formulated in the same manner. Plants ranged in height from 2 to 18 cm (1- to 4-leaf stage) for postemergence treatments. Treated plants and controls were maintained in a greenhouse for 13 to 15 days, after which time all species were compared to controls and visually evaluated. Plant response ratings, summarized in Table C, are based on a scale of 0 to 100 where 0 is no effect and 100 is complete control. A dash (-) response means no test result.

[4] = test system: chickweed (common chickweed, Stellaria media); test: as above; conditions: for Plant response rating, Chickweed: scale 0 to 100
Text: as §2

[5] = test system: kochia (Kochia scoparia); test: as above; conditions: for Plant response rating, Kochia: scale 0 to 100
Text: as §2

Structure (SMILES) | Plant response rating (0 to 100), Blackgrass [1] | Plant response rating, Blackgrass ([1]; 125 g ai/ha) | Plant response rating, Blackgrass ([1]; 250 g ai/ha) | Plant response rating, Blackgrass ([1]; 500 g ai/ha) | Plant response rating (0 to 100), Ragweed ([2]; 125 g ai/ha) | Plant response rating, Ragweed ([2]; 250 g ai/ha) | Plant response rating, Ragweed ([2]; 500 g ai/ha) | Plant response rating (0 to 100), Oat, Wild ([3]; 62 g ai/ha) | Plant response rating (0 to 100), Oat, Wild ([3]; 125 g ai/ha) | Plant response rating, Oat, Wild ([3]; 250 g ai/ha) | Plant response rating, Oat, Wild ([3]; 500 g ai/ha) | Plant response rating (0 to 100), Chickweed ([4]; 62 g ai/ha) | Plant response rating (0 to 100), Chickweed ([4]; 125 g ai/ha) | Plant response rating, Chickweed ([4]; 250 g ai/ha) | Plant response rating, Chickweed ([4]; 500 g ai/ha) | Plant response rating (0 to 100), Kochia ([5]; 62 g ai/ha) | Plant response rating (0 to 100), Kochia ([5]; 125 g ai/ha) | Plant response rating, Kochia ([5]; 250 g ai/ha) | Plant response rating, Kochia ([5]; 500 g ai/ha) | Plant response rating (0 to 100), Ragweed ([2]; 62 g ai/ha)
CCn1cc(C(=O)c2cccs2)c(-c2cc(Cl)cc(Cl)c2)n1 [Compound 18] | 0 | 0 | 0 | 0 | 10 | 15 | 25 | 0 | 0 | 0 | 0 | 50 | 80 | 98 | 100 | 20 | 40 | 45 | 60 | 
Cn1cc(C(=O)c2cccs2)c(-c2cc(Cl)cc(Cl)c2)n1 [Compound 17] | 0 | 0 | 0 | 5 | 10 | 10 | 10 | 0 | 0 | 0 | 0 | 10 | 65 | 85 | 85 | 30 | 50 | 50 | 55 | 0
